# Assay results as given in the supplement of paper PMC4862054.
# Where “and” joins values, the source holds several entries; their conditions need not be identical. Equal values may be shown once.
# How the values were obtained:
# Details in all cases: incubation time: 72 h
# BT-474 [1] = experiment: drug sensitivity score (DSS), CellTox Green (DSS (AUC-based score)); higher = stronger drug effect (viability inhibition or cytotoxicity); extreme values may be limits of the assay
# Method in brief: (§1)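 Breast cancer cell lines, seeded as 20 µl suspension, were incubated 72 h with compound in 384-well plates at 5 concentrations in 10-fold steps over a 10,000-fold range set for each compound. Fluorescence from CellTox Green was read at 485/520 nm before CellTiter-Glo luminescence, which was read after 10 min at room temperature. Every plate was normalised to 0.1 % DMSO and a positive kill control, and the drug sensitivity score was taken from the area under the fitted dose-response curve.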
# CAL-148 [2] = experiment: as above
# Method in brief: as §1
# CAL-51 [3] = experiment: as above
# Method in brief: as §1
# DU-4475 [4] = experiment: as above
# Method in brief: as §1
# HCC1599 [5] = experiment: as above
# Method in brief: as §1
# HCC1937 [6] = experiment: as above
# Method in brief: as §1
# HDQ-P1 [7] = experiment: as above
# Method in brief: as §1
# MDA-MB-231 [8] = experiment: as above
# Method in brief: as §1
# MDA-MB-436 [9] = experiment: as above
# Method in brief: as §1
# MDA-MB-453 [10] = experiment: as above
# Method in brief: as §1
# MFM-223 [11] = experiment: as above
# Method in brief: as §1
# BT-474 [12] = experiment: normalised viability (% of control), CellTiter-Blue; higher = more viable cells (about 100 = DMSO control)
# Method in brief: (§2)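 The reported figure is normalised viability at a single listed concentration of the series. Breast cancer cell lines (20 µl suspension) went onto 384-well plates holding compound in 5 µl medium for 72 h. CellTiter-Blue (2.5 µl, 2 h, 37 °C) was read by fluorescence at 560/590 nm, and each plate was scaled to vehicle at 100 and a positive kill control at 0.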
# BT-549 = experiment: as above
# Method in brief: as §2
# CAL-120 = experiment: as above
# Method in brief: as §2
# CAL-148 [13] = experiment: as above
# Method in brief: as §2
# CAL-51 [14] = experiment: as above
# Method in brief: as §2
# CAL-85-1 = experiment: as above
# Method in brief: as §2
# HCC1599 [15] = experiment: as above
# Method in brief: as §2
# HCC1937 [16] = experiment: as above
# Method in brief: as §2
# HDQ-P1 [17] = experiment: as above
# Method in brief: as §2
# Hs578T = experiment: as above
# Method in brief: as §2
# MDA-MB-231 [18] = experiment: as above
# Method in brief: as §2
# MDA-MB-453 [19] = experiment: as above
# Method in brief: as §2
# MDA-MB-468 = experiment: as above
# Method in brief: as §2
# MFM-223 [20] = experiment: as above
# Method in brief: as §2
# SK-BR-3 = experiment: as above
# Method in brief: as §2
# DU-4475 [21] = experiment: as above
# Method in brief: as §2
# HCC1143 = experiment: as above
# Method in brief: as §2
# MDA-MB-436 [22] = experiment: as above
# Method in brief: as §2
compound,measurement,setting,value
Cn1c(=O)n(-c2ccc(C(C)(C)C#N)cc2)c2c3cc(-c4cnc5ccccc5c4)ccc3ncc21 [Dactolisib],drug sensitivity score,BT-474 [1],0
same,drug sensitivity score,CAL-148 [2],11.7
same,drug sensitivity score,CAL-51 [3],0
same,drug sensitivity score,DU-4475 [4],0
same,drug sensitivity score,HCC1599 [5],0
same,drug sensitivity score,HCC1937 [6],7.09
same,drug sensitivity score,HDQ-P1 [7],0
same,drug sensitivity score,MDA-MB-231 [8],0
same,drug sensitivity score,MDA-MB-436 [9],0
same,drug sensitivity score,MDA-MB-453 [10],0
same,drug sensitivity score,MFM-223 [11],2.01
CO[C@H]1C[C@@H]2CC[C@@H](C)[C@@](O)(O2)C(=O)C(=O)N2CCCC[C@H]2C(=O)O[C@H]([C@H](C)C[C@@H]2CC[C@@H](OCCO)[C@H](OC)C2)CC(=O)[C@H](C)/C=C(\C)[C@@H](O)[C@@H](OC)C(=O)[C@H](C)C[C@H](C)/C=C/C=C/C=C/1C [Everolimus],normalised viability,BT-474 [12]; 100 nM,65.9% and 57.5%
same,normalised viability,BT-549; 100 nM,62.1% and 54.9%
same,normalised viability,CAL-120; 100 nM,54.1% and 36.7%
same,normalised viability,CAL-148 [13]; 3 nM,50.4% and 48.4%
same,normalised viability,CAL-51 [14]; 3 nM,49.6% and 52.9%
same,normalised viability,CAL-85-1; 3 nM,63.9% and 54%
same,normalised viability,HCC1599 [15]; 100 nM,87% and 69.7%
same,normalised viability,HCC1937 [16]; 100 nM,48.8% and 48.4%
same,normalised viability,HDQ-P1 [17]; 3 nM,71.3% and 59.9%
same,normalised viability,Hs578T; 100 nM,62.4% and 51%
same,normalised viability,MDA-MB-231 [18]; 100 nM,48.1% and 68.9%
same,normalised viability,MDA-MB-453 [19]; 3 nM,30.8% and 28.6%
same,normalised viability,MDA-MB-468; 100 nM,72.6% and 66.8%
same,normalised viability,MFM-223 [20]; 100 nM,50% and 45.1%
same,normalised viability,SK-BR-3; 100 nM,59.7% and 44.4%
same,drug sensitivity score,BT-474 [1],0
same,drug sensitivity score,CAL-148 [2],0
same,drug sensitivity score,CAL-51 [3],0
same,drug sensitivity score,DU-4475 [4],0
same,drug sensitivity score,HCC1599 [5],0
same,drug sensitivity score,HCC1937 [6],0
same,drug sensitivity score,HDQ-P1 [7],0
same,drug sensitivity score,MDA-MB-231 [8],0
same,drug sensitivity score,MDA-MB-436 [9],0
same,drug sensitivity score,MDA-MB-453 [10],0
same,drug sensitivity score,MFM-223 [11],5.95
Cc1cc2c(C(C)C)c(O)c(O)c(C=O)c2c(O)c1-c1c(C)cc2c(C(C)C)c(O)c(O)c(C=O)c2c1O [Gossypol],normalised viability,BT-474 [12]; 10000 nM,21.5%
same,normalised viability,BT-549; 10000 nM,19.5%
same,normalised viability,CAL-120; 10000 nM,37.5%
same,normalised viability,CAL-148 [13]; 300 nM,109%
same,normalised viability,CAL-51 [14]; 300 nM,94.2%
same,normalised viability,CAL-85-1; 300 nM,87.3%
same,normalised viability,DU-4475 [21]; 300 nM,93.9%
same,normalised viability,HCC1143; 10000 nM,49%
same,normalised viability,HCC1599 [15]; 10000 nM,47.2%
same,normalised viability,HCC1937 [16]; 10000 nM,23.3%
same,normalised viability,HDQ-P1 [17]; 300 nM,141%
same,normalised viability,Hs578T; 10000 nM,6%
same,normalised viability,MDA-MB-231 [18]; 10000 nM,22.8%
same,normalised viability,MDA-MB-436 [22]; 10000 nM,14.9%
same,normalised viability,MDA-MB-453 [19]; 300 nM,103%
same,normalised viability,MDA-MB-468; 10000 nM,6.5%
same,normalised viability,MFM-223 [20]; 10000 nM,23.3%
same,normalised viability,SK-BR-3; 10000 nM,28.6%
Cc1ccc(NC(=O)c2ccc(CN3CCN(C)CC3)cc2)cc1Nc1nccc(-c2cccnc2)n1 [Imatinib],normalised viability,BT-474 [12]; 1000 nM,111%
same,normalised viability,BT-549; 1000 nM,95.8% and 88.7%
same,normalised viability,CAL-120; 1000 nM,86.6% and 91.9%
same,normalised viability,CAL-148 [13]; 30 nM,89.8% and 88.6%
same,normalised viability,CAL-51 [14]; 30 nM,106% and 99.3%
same,normalised viability,CAL-85-1; 30 nM,91.2% and 88%
same,normalised viability,DU-4475 [21]; 30 nM,104% and 85.4%
same,normalised viability,HCC1143; 1000 nM,85.9% and 97%
same,normalised viability,HCC1599 [15]; 1000 nM,109% and 102%
same,normalised viability,HCC1937 [16]; 1000 nM,80.5% and 85.3%
same,normalised viability,HDQ-P1 [17]; 30 nM,89.2% and 107%
same,normalised viability,Hs578T; 1000 nM,100% and 103%
same,normalised viability,MDA-MB-231 [18]; 1000 nM,92.1% and 110%
same,normalised viability,MDA-MB-436 [22]; 1000 nM,74.6% and 90.3%
same,normalised viability,MDA-MB-468; 1000 nM,106% and 109%
same,normalised viability,MFM-223 [20]; 1000 nM,104% and 100%
same,normalised viability,SK-BR-3; 1000 nM,103% and 115%
same,drug sensitivity score,BT-474 [1],0
same,drug sensitivity score,CAL-148 [2],0
same,drug sensitivity score,CAL-51 [3],0
same,drug sensitivity score,DU-4475 [4],0
same,drug sensitivity score,HCC1599 [5],0
same,drug sensitivity score,HCC1937 [6],0
same,drug sensitivity score,HDQ-P1 [7],0
same,drug sensitivity score,MDA-MB-231 [8],0
same,drug sensitivity score,MDA-MB-436 [9],0
same,drug sensitivity score,MDA-MB-453 [10],6.17
same,drug sensitivity score,MFM-223 [11],0
Nc1nc(OCc2cc(Br)cs2)c2[nH]cnc2n1 [Lomeguatrib],drug sensitivity score,BT-474 [1],0
same,drug sensitivity score,CAL-148 [2],0
same,drug sensitivity score,CAL-51 [3],0
same,drug sensitivity score,DU-4475 [4],0
same,drug sensitivity score,HCC1599 [5],0
same,drug sensitivity score,HCC1937 [6],1.11
same,drug sensitivity score,HDQ-P1 [7],0
same,drug sensitivity score,MDA-MB-231 [8],0
same,drug sensitivity score,MDA-MB-436 [9],0
same,drug sensitivity score,MDA-MB-453 [10],0
same,drug sensitivity score,MFM-223 [11],0
Cn1c(=O)n(-c2ccc(C(C)(C)C#N)cc2)c2c3cc(-c4cnc5ccccc5c4)ccc3ncc21 [NVP-BEZ235],normalised viability,BT-474 [12]; 100 nM,42.9%
same,normalised viability,BT-549; 100 nM,21.7%
same,normalised viability,CAL-120; 100 nM,17.6%
same,normalised viability,CAL-148 [13]; 3 nM,93%
same,normalised viability,CAL-51 [14]; 3 nM,84.7%
same,normalised viability,CAL-85-1; 3 nM,84.5%
same,normalised viability,DU-4475 [21]; 3 nM,107%
same,normalised viability,HCC1143; 100 nM,37.9%
same,normalised viability,HCC1599 [15]; 100 nM,64.8%
same,normalised viability,HCC1937 [16]; 100 nM,47.4%
same,normalised viability,HDQ-P1 [17]; 3 nM,94.5%
same,normalised viability,Hs578T; 100 nM,32.5%
same,normalised viability,MDA-MB-231 [18]; 100 nM,26.8%
same,normalised viability,MDA-MB-436 [22]; 100 nM,68.2%
same,normalised viability,MDA-MB-453 [19]; 3 nM,87.9%
same,normalised viability,MDA-MB-468; 100 nM,37%
same,normalised viability,MFM-223 [20]; 100 nM,24.5%
same,normalised viability,SK-BR-3; 100 nM,21.9%
COc1ccccc1S(=O)(=O)Nc1ccc2c(c1)CN(C)C(=O)N2 [PFI-1],drug sensitivity score,BT-474 [1],0
same,drug sensitivity score,CAL-148 [2],0
same,drug sensitivity score,CAL-51 [3],0
same,drug sensitivity score,DU-4475 [4],0
same,drug sensitivity score,HCC1599 [5],0
same,drug sensitivity score,HCC1937 [6],0
same,drug sensitivity score,HDQ-P1 [7],0
same,drug sensitivity score,MDA-MB-231 [8],0
same,drug sensitivity score,MDA-MB-436 [9],0
same,drug sensitivity score,MDA-MB-453 [10],0
same,drug sensitivity score,MFM-223 [11],0
NS(=O)(=O)OC[C@@H]1C[C@@H](n2ccc3c(N[C@H]4CCc5ccccc54)ncnc32)C[C@@H]1O [Pevonedistat],drug sensitivity score,BT-474 [1],0
same,drug sensitivity score,CAL-148 [2],0
same,drug sensitivity score,CAL-51 [3],25.3
same,drug sensitivity score,DU-4475 [4],4.01
same,drug sensitivity score,HCC1599 [5],0.787
same,drug sensitivity score,HCC1937 [6],0
same,drug sensitivity score,HDQ-P1 [7],0
same,drug sensitivity score,MDA-MB-231 [8],0
same,drug sensitivity score,MDA-MB-436 [9],6.93
same,drug sensitivity score,MDA-MB-453 [10],0
same,drug sensitivity score,MFM-223 [11],0
CNNCc1ccc(C(=O)NC(C)C)cc1 [Procarbazine],normalised viability,BT-474 [12]; 1000 nM,114%
same,normalised viability,BT-549; 1000 nM,98.8%
same,normalised viability,CAL-120; 1000 nM,99%
same,normalised viability,CAL-148 [13]; 30 nM,101%
same,normalised viability,CAL-51 [14]; 30 nM,106%
same,normalised viability,CAL-85-1; 30 nM,87.4%
same,normalised viability,DU-4475 [21]; 30 nM,107%
same,normalised viability,HCC1143; 1000 nM,105%
same,normalised viability,HCC1599 [15]; 1000 nM,88.9%
same,normalised viability,HCC1937 [16]; 1000 nM,77.8%
same,normalised viability,HDQ-P1 [17]; 30 nM,103%
same,normalised viability,Hs578T; 1000 nM,103%
same,normalised viability,MDA-MB-231 [18]; 1000 nM,119%
same,normalised viability,MDA-MB-436 [22]; 1000 nM,88.8%
same,normalised viability,MDA-MB-453 [19]; 30 nM,114%
same,normalised viability,MDA-MB-468; 1000 nM,124%
same,normalised viability,MFM-223 [20]; 1000 nM,95.5%
same,normalised viability,SK-BR-3; 1000 nM,113%
same,drug sensitivity score,BT-474 [1],0
same,drug sensitivity score,CAL-148 [2],0
same,drug sensitivity score,CAL-51 [3],0
same,drug sensitivity score,DU-4475 [4],0
same,drug sensitivity score,HCC1599 [5],0
same,drug sensitivity score,HCC1937 [6],1.67
same,drug sensitivity score,HDQ-P1 [7],0
same,drug sensitivity score,MDA-MB-231 [8],0
same,drug sensitivity score,MDA-MB-436 [9],0
same,drug sensitivity score,MFM-223 [11],0
